Key:
[1] = test system: MCF7; assay: Growth inhibition of human MCF7 cells assessed as cell growth at 1 uM incubated for 48 hrs by sulforhodamine B assay relative to control; format: functional; conditions: MCF7, 48 h, read-out: Activity
[2] = test system: ACHN; assay: Growth inhibition of human ACHN cells assessed as cell growth at 1 uM incubated for 48 hrs by sulforhodamine B assay relative to control; format: functional; conditions: read-out: Activity
[3] = test system: RXF 393; assay: Growth inhibition of human RXF393 cells assessed as cell growth at 0.1 uM incubated for 48 hrs by sulforhodamine B assay relative to control; format: functional; conditions: RXF 393, 48 h, read-out: Activity
[4] = test system: SR; assay: Growth inhibition of human SR cells incubated for 48 hrs by sulforhodamine B assay; format: functional, cell-based
[5] = test system: IGROV-1; assay: Growth inhibition of human IGROV1 cells incubated for 48 hrs by sulforhodamine B assay; format: functional, cell-based; conditions: IGROV-1, 48 h
[6] = test system: MOLT-4; assay: Growth inhibition of human MOLT4 cells assessed as cell growth at 1 uM incubated for 48 hrs by sulforhodamine B assay relative to control; format: functional; conditions: MOLT-4, 48 h, read-out: Activity
[7] = test system: MDA-MB-468; assay: Growth inhibition of human MDA-MB-468 cells assessed as cell growth at 0.01 uM incubated for 48 hrs by sulforhodamine B assay relative to control; format: functional; conditions: MDA-MB-468, 48 h, read-out: Activity
[8] = test system: 786-0; assay: Growth inhibition of human 786-0 cells incubated for 48 hrs by sulforhodamine B assay; format: functional, cell-based; conditions: 786-0, 48 h
[9] = test system: HL-60(TB); assay: Growth inhibition of human HL-60(TB) cells assessed as cell growth at 0.1 uM incubated for 48 hrs by sulforhodamine B assay relative to control; format: functional; conditions: HL-60, 48 h, read-out: Activity
[10] = test system: RPMI-8226; assay: Growth inhibition of human RPMI8226 cells assessed as cell growth at 1 uM incubated for 48 hrs by sulforhodamine B assay relative to control; format: functional; conditions: RPMI-8226, 48 h, read-out: Activity
[11] = test system: A498; assay: Growth inhibition of human A498 cells incubated for 48 hrs by sulforhodamine B assay; format: functional, cell-based; conditions: A498, 48 h
[12] = test system: A498; assay: Growth inhibition of human A498 cells assessed as cell growth at 0.1 uM incubated for 48 hrs by sulforhodamine B assay relative to control; format: functional; conditions: A498, 48 h, read-out: Activity
[13] = test system: SW-620; assay: Growth inhibition of human SW620 cells assessed as cell growth at 0.01 uM incubated for 48 hrs by sulforhodamine B assay relative to control; format: functional; conditions: SW-620, 48 h, read-out: Activity
[14] = test system: RXF 393; assay: Growth inhibition of human RXF393 cells assessed as cell growth at 1 uM incubated for 48 hrs by sulforhodamine B assay relative to control; format: functional; conditions: RXF 393, 48 h, read-out: Activity
[15] = test system: HCC 2998; assay: Growth inhibition of human HCC2998 cells assessed as cell growth at 100 uM incubated for 48 hrs by sulforhodamine B assay relative to control; format: functional; conditions: HCC 2998, 48 h, read-out: Activity
[16] = test system: CCRF-CEM; assay: Growth inhibition of human CCRF-CEM cells assessed as cell growth at 100 uM incubated for 48 hrs by sulforhodamine B assay relative to control; format: functional; conditions: read-out: Activity
[17] = test system: BT-549; assay: Growth inhibition of human BT549 cells assessed as cell growth at 1 uM incubated for 48 hrs by sulforhodamine B assay relative to control; format: functional; conditions: BT-549, 48 h, read-out: Activity
[18] = test system: OVCAR-3; assay: Growth inhibition of human OVCAR3 cells incubated for 48 hrs by sulforhodamine B assay; format: functional, cell-based; conditions: OVCAR-3, 48 h
[19] = test system: BT-549; assay: Growth inhibition of human BT549 cells assessed as cell growth at 0.01 uM incubated for 48 hrs by sulforhodamine B assay relative to control; format: functional; conditions: BT-549, 48 h, read-out: Activity
[20] = test system: HCT-116; assay: Growth inhibition of human HCT116 cells assessed as cell growth at 1 uM incubated for 48 hrs by sulforhodamine B assay relative to control; format: functional; conditions: HCT-116, 48 h, read-out: Activity
[21] = test system: SN12C; assay: Growth inhibition of human SN12C cells assessed as cell growth at 100 uM incubated for 48 hrs by sulforhodamine B assay relative to control; format: functional; conditions: read-out: Activity
[22] = test system: PC-3; assay: Growth inhibition of human PC3 cells incubated for 48 hrs by sulforhodamine B assay; format: functional, cell-based; conditions: PC-3, 48 h
[23] = test system: SF-539; assay: Growth inhibition of human SF539 cells assessed as cell growth at 1 uM incubated for 48 hrs by sulforhodamine B assay relative to control; format: functional; conditions: SF-539, 48 h, read-out: Activity
[24] = test system: UACC-257; assay: Growth inhibition of human UACC257 cells assessed as cell growth at 0.01 uM incubated for 48 hrs by sulforhodamine B assay relative to control; format: functional; conditions: UACC-257, 48 h, read-out: Activity
[25] = test system: NCI/ADR-RES; assay: Growth inhibition of human NCI/ADR-RES cells incubated for 48 hrs by sulforhodamine B assay; format: functional, cell-based
[26] = test system: NCI-H460; assay: Growth inhibition of human NCI-H460 cells incubated for 48 hrs by sulforhodamine B assay; format: functional, cell-based; conditions: NCI-H460, 48 h
[27] = test system: M14; assay: Growth inhibition of human M14 cells incubated for 48 hrs by sulforhodamine B assay; format: functional, cell-based; conditions: M14, 48 h
[28] = test system: 786-0; assay: Growth inhibition of human 786-0 cells assessed as cell growth at 0.01 uM incubated for 48 hrs by sulforhodamine B assay relative to control; format: functional; conditions: 786-0, 48 h, read-out: Activity
[29] = read-out: LC50 (the source's name)
[30] = read-out: pLC50 (the source's name) (converted)

**Q.** Which growth at 1 µM [1] does the source give for `COc1cc(Cl)cc(-c2nn(-c3cccc(NC(=O)c4cccc(C(F)(F)F)c4)c3)cc2-c2ccncc2)c1` here?
**A.** 57%

**Q.** What about the growth at 1 µM [2] of the same compound?
**A.** 54%

**Q.** And the growth at 0.1 µM [3]?
**A.** 65%

**Q.** What about the GI50 ([4]; read-out: GI50) of the same compound?
**A.** 2.48 µM

**Q.** And the CC50 [4, 29]?
**A.** > 100 µM

**Q.** What about the TGI ([4]; read-out: TGI) of the same compound?
**A.** > 100 µM

**Q.** And the GI50 ([4]; read-out: pGI50 (converted))?
**A.** 3.09 µM

**Q.** What about the CC50 [4, 30] of the same compound?
**A.** > 100 µM

**Q.** What about the TGI ([4]; read-out: pTGI (converted)) of the same compound?
**A.** > 100 µM

**Q.** What about the GI50 ([5]; read-out: GI50) of the same compound?
**A.** > 100 µM

**Q.** What about the CC50 [5, 29] of the same compound?
**A.** > 100 µM

**Q.** And the TGI ([5]; read-out: TGI)?
**A.** > 100 µM

**Q.** What about the GI50 ([5]; read-out: pGI50 (converted)) of the same compound?
**A.** > 100 µM

**Q.** What about the CC50 [5, 30] of the same compound?
**A.** > 100 µM

**Q.** What about the TGI ([5]; read-out: pTGI (converted)) of the same compound?
**A.** > 100 µM

**Q.** And the growth at 1 µM [6]?
**A.** 72%

**Q.** And the growth at 0.01 µM [7]?
**A.** 91%

**Q.** What about the GI50 ([8]; read-out: GI50) of the same compound?
**A.** 1.57 µM

**Q.** What about the CC50 [8, 29] of the same compound?
**A.** > 100 µM

**Q.** What about the TGI ([8]; read-out: TGI) of the same compound?
**A.** > 100 µM

**Q.** What about the GI50 ([8]; read-out: pGI50 (converted)) of the same compound?
**A.** 16.6 µM

**Q.** What about the CC50 [8, 30] of the same compound?
**A.** > 100 µM

**Q.** What about the TGI ([8]; read-out: pTGI (converted)) of the same compound?
**A.** > 100 µM

**Q.** And the growth at 0.1 µM [9]?
**A.** 90%

**Q.** What about the growth at 1 µM [10] of the same compound?
**A.** 79%

**Q.** What about the CC50 [11, 29] of the same compound?
**A.** > 100 µM

**Q.** And the TGI ([11]; read-out: TGI)?
**A.** > 100 µM

**Q.** And the CC50 [11, 30]?
**A.** > 100 µM

**Q.** And the TGI ([11]; read-out: pTGI (converted))?
**A.** > 100 µM

**Q.** And the growth at 0.1 µM [12]?
**A.** 52%

**Q.** And the growth at 0.01 µM [13]?
**A.** 101%

**Q.** What about the growth at 1 µM [14] of the same compound?
**A.** 53%

**Q.** What about the growth at 100 µM [15] of the same compound?
**A.** 15%

**Q.** And the growth at 100 µM [16]?
**A.** 32%

**Q.** What about the growth at 1 µM [17] of the same compound?
**A.** 94%

**Q.** What about the IC50 [18] of the same compound?
**A.** 7.69 µM

**Q.** What about the GI50 ([18]; read-out: GI50) of the same compound?
**A.** 7.59 µM

**Q.** What about the CC50 [18, 29] of the same compound?
**A.** > 100 µM

**Q.** And the TGI ([18]; read-out: TGI)?
**A.** > 100 µM

**Q.** What about the GI50 ([18]; read-out: pGI50 (converted)) of the same compound?
**A.** 7.76 µM

**Q.** What about the CC50 [18, 30] of the same compound?
**A.** > 100 µM

**Q.** And the TGI ([18]; read-out: pTGI (converted))?
**A.** > 100 µM

**Q.** And the growth at 0.01 µM [19]?
**A.** 108%

**Q.** What about the growth at 1 µM [20] of the same compound?
**A.** 71%

**Q.** What about the growth at 100 µM [21] of the same compound?
**A.** 52%

**Q.** What about the IC50 [22] of the same compound?
**A.** 2.71 µM

**Q.** What about the GI50 ([22]; read-out: GI50) of the same compound?
**A.** 2.71 µM

**Q.** And the CC50 [22, 29]?
**A.** > 100 µM

**Q.** And the TGI ([22]; read-out: TGI)?
**A.** > 100 µM

**Q.** What about the GI50 ([22]; read-out: pGI50 (converted)) of the same compound?
**A.** 2.69 µM

**Q.** What about the CC50 [22, 30] of the same compound?
**A.** > 100 µM

**Q.** And the TGI ([22]; read-out: pTGI (converted))?
**A.** > 100 µM

**Q.** And the growth at 1 µM [23]?
**A.** 52%

**Q.** And the growth at 0.01 µM [24]?
**A.** 91%

**Q.** And the GI50 ([25]; read-out: GI50)?
**A.** 5.38 µM

**Q.** What about the CC50 [25, 29] of the same compound?
**A.** > 100 µM

**Q.** And the TGI ([25]; read-out: TGI)?
**A.** > 100 µM

**Q.** What about the GI50 ([25]; read-out: pGI50 (converted)) of the same compound?
**A.** 5.37 µM

**Q.** And the CC50 [25, 30]?
**A.** > 100 µM

**Q.** And the TGI ([25]; read-out: pTGI (converted))?
**A.** > 100 µM

**Q.** And the GI50 ([26]; read-out: GI50)?
**A.** 5.17 µM

**Q.** And the CC50 [26, 29]?
**A.** > 100 µM

**Q.** And the TGI ([26]; read-out: TGI)?
**A.** > 100 µM

**Q.** And the GI50 ([26]; read-out: pGI50 (converted))?
**A.** 5.13 µM

**Q.** And the CC50 [26, 30]?
**A.** > 100 µM

**Q.** And the TGI ([26]; read-out: pTGI (converted))?
**A.** > 100 µM

**Q.** What about the GI50 ([27]; read-out: GI50) of the same compound?
**A.** 0.09 µM

**Q.** And the CC50 [27, 29]?
**A.** > 100 µM

**Q.** What about the TGI ([27]; read-out: TGI) of the same compound?
**A.** > 100 µM

**Q.** What about the GI50 ([27]; read-out: pGI50 (converted)) of the same compound?
**A.** 6.03 µM

**Q.** And the CC50 [27, 30]?
**A.** > 100 µM

**Q.** What about the TGI ([27]; read-out: pTGI (converted)) of the same compound?
**A.** > 100 µM

**Q.** What about the growth at 0.01 µM [28] of the same compound?
**A.** 99%
